Experimental data taken from US20210277246A1, “PROBE FOR DETECTING CARBAPENEM-RESISTANT BACTERIA AND USE THEREOF” (priority 2018, published 2021).

Columns and labels:
Test in all cases: MIC of carbapenems for isolates
Assay type in all cases: cell-based
[1] = test system: Citrobacter freundii (KPC); details: 1 isolate
[2] = test system: Escherichia coli (KPC); details: 3 isolates
[3] = test system: Klebsiella aerogenes (KPC); details: 1 isolate
[4] = test system: Klebsiella oxytoca (KPC); details: 1 isolate
[5] = test system: Klebsiella pneumoniae (GES); details: 1 isolate
[6] = test system: Citrobacter freundii (NDM); details: 1 isolate
[7] = test system: Enterobacter cloacae (NDM); details: 2 isolates
[8] = test system: Escherichia coli (NDM); details: 4 isolates
[9] = test system: Klebsiella pneumoniae (NDM); details: 1 isolate
[10] = test system: Morganella morganii (NDM); details: 1 isolate
[11] = test system: Enterobacter cloacae (VIM); details: 1 isolate
[12] = test system: Klebsiella oxytoca (VIM); details: 1 isolate
[13] = test system: Klebsiella pneumoniae (VIM); details: 1 isolate
[14] = test system: Escherichia coli (IMP); details: 1 isolate
[15] = test system: Citrobacter freundii (OXA); details: 1 isolate
[16] = test system: Klebsiella pneumoniae (NDM/OXA); details: NDM/OXA co-producing, 1 isolate
[17] = test system: Citrobacter freundii (non-CP-CRE); details: 1 isolate
[18] = test system: Enterobacter cloacae (non-CP-CRE); details: 10 isolates
[19] = test system: Escherichia coli (non-producer); details: 32 isolates
[20] = test system: Klebsiella pneumoniae (non-producer); details: 21 isolates
[21] = test system: Escherichia coli (OXA); details: 3 isolates
[22] = test system: Klebsiella pneumoniae (OXA); details: 2 isolates
[23] = test system: Klebsiella pneumoniae (KPC/OXA); details: KPC/OXA co-producing, 2 isolates
[24] = test system: Enterobacter amnigenus (non-CP-CRE); details: Lelliottia amnigena, 4 isolates
[25] = test system: Escherichia coli (non-CP-CRE); details: 8 isolates
[26] = test system: Klebsiella pneumoniae (non-CP-CRE); details: 22 isolates
[27] = test system: Escherichia coli (ESBL-producer, CTX-M); details: 29 isolates
[28] = test system: Klebsiella pneumoniae (ESBL-producer, CTX-M); details: 24 isolates

Structure (SMILES) | MIC [1] [µg/mL] | MIC [2] [µg/mL] | MIC [3] [µg/mL] | MIC [4] [µg/mL] | MIC [5] [µg/mL] | MIC [6] [µg/mL] | MIC [7] [µg/mL] | MIC [8] [µg/mL] | MIC [9] [µg/mL] | MIC [10] [µg/mL] | MIC [11] [µg/mL] | MIC [12] [µg/mL] | MIC [13] [µg/mL] | MIC [14] [µg/mL] | MIC [15] [µg/mL] | MIC [16] [µg/mL] | MIC [17] [µg/mL] | MIC [19] [µg/mL] | MIC [20] [µg/mL] | also measured
C[C@@H](O)[C@H]1C(=O)N2C(C(=O)O)=C(S[C@@H]3CN[C@H](C(=O)Nc4cccc(C(=O)O)c4)C3)[C@H](C)[C@H]12 [ERT, ertapenem] | > 16 | 8 | > 16 | > 16 | > 16 | > 16 | > 16 | > 16 | > 16 | 2 | 1 | 0.5 | > 16 | 4 | 1 | 16 | 2 | ≤ 0.125 | ≤ 0.125 | MIC [18]: 2 to 16 µg/mL
C[C@@H](O)[C@H]1C(=O)N2C(C(=O)O)=C(SCCN=CN)C[C@H]12 [IPM, imipenem] | > 16 | 2 to 8 | > 16 | > 16 | > 16 | 8 | > 16 | 8 to 16 | > 16 | > 16 | 4 | 2 | > 16 | 1 | 2 | 4 | 1 | 0.25 to 0.5 | 0.25 to 1 | MIC [21]: 0.5 to 8 µg/mL; MIC [22]: 2 to 4 µg/mL; MIC [23]: 4 to 16 µg/mL; MIC [24]: 8 to 16 µg/mL; MIC [25]: 0.5 to 16 µg/mL; MIC [26]: 0.5 to 16 µg/mL; MIC [27]: 0.25 to 1 µg/mL; MIC [28]: 0.25 to 1 µg/mL
